The subject of one experiment is HT29 cells. In words: Necroptosis inhibition in HT29 cell assay (TNF-α/Smac mimetic/z-VAD induced, cell viability). The experiment is classed as cell-based. The note with it: then TNF-α 40 ng/mL + Smac mimetic 100 nM + z-VAD 20 μM for 48 hours. As for the experimental part: 1. Compounds Tested for Necroptosis Inhibition Activities in HT29 Cell Assay
For this assay, HT29 cells were added to 96-well plates and then were pre-treated with 10 μM of the test compound for one hour. Then the cells were treated with tumor necrosis factor alpha (TNF-α, 40 ng/mL), Smacmimetic (cIAP inhibitor) (100 nM) and z-VAD (capase inhibitor, from calbiochem) (20 μM) for 48 hours, and the viability of cells was quantified. DMSO pretreatment group was used as negative controls, Nec-1 (known necroptosis inhibitor, from Biomol) pretreatment group was used as positive controls.

Experiment [1] deals with L929 mouse skin fibroblast cells. The experiment can be described thus: Necroptosis inhibition in L929 cell assay (TNF-α/z-VAD induced, cell viability by ATP levels). The experiment is classed as cell-based. The settings on record: 1 h pre-treatment with compound, then TNF-α 40 ng/mL + z-VAD 20 μM for 48 hours. As for the experimental part: 2. Compounds Tested for Necroptosis Inhibition Activities in L929 Cell Assay
Mouse L929 mouse skin fibroblast cells were added to 96-well plates and then were pre-treated with 10 μM of the test compound for one hour. Then the cells were treated with TNF-α (40 ng/mL, lab-made) and z-VAD (capase inhibitor, from calbiochem) (20 μM) for 48 hours, and the viability of cells was quantified by detecting adenosine triphosphate (ATP) levels. DMSO pretreatment group was used as negative controls, Nec-1 (known necroptosis inhibitor, from Biomol) pretreatment group was used as positive controls.

The mark [2] stands for this setting: Homo sapiens, HT-29, 1 h pre-treatment with compound.

By IC50 is commonly meant the concentration that inhibits the measured activity by half.

Regarding `O=C(Nc1nc2ccc(-c3cnc4ccn(C(=O)OC5CCOCC5)c4c3)cc2s1)C1CC1` [Compound C5, tetrahydropyran-4-yl 6-[2-(cyclopropanecarbonylamino)-1,3-benzothiazol-6-yl]pyrrolo[3,2-b]pyridine-1-carboxylate], the IC50 was determined as 5.6 nM in the experiment with HT29 cells (setting [2]) and 17 nM in experiment [1] (Mus musculus).

In the case of `O=C(Nc1cn2cc(-c3cnc4ccn(C(=O)OC5CCOCC5)c4c3)ccc2n1)C1CC1` [Compound C6, tetrahydropyran-4-yl 6-[2-(cyclopropanecarbonylamino)imidazo-[1,2-a]pyridin-6-yl]pyrrolo[3,2-b]pyridine-1-carboxylate], the IC50 with HT29 cells (setting [2]) is 56 nM; in experiment [1] (Mus musculus), 50 nM.

With `O=C(Nc1nc2ccc(-c3cnc4ccn(C(=O)CC5CCOCC5)c4c3)cc2s1)C1CC1` [Compound C8, N-[6-[1-(2-tetrahydropyran-4-ylacetyl)pyrrolo[3,2-b]pyridin-6-yl]-1,3-benzothiazol-2-yl]cyclopropanecarboxamide], the IC50 in the experiment on HT29 cells (setting [2]) worked out at 440 nM; in experiment [1] (Mus musculus) it was 17 nM.

Turning to `O=C(NC1CCOCC1)c1csc2ncc(-c3ccc4nc(NC(=O)C5CC5)sc4c3)cc12` [Compound C12, 5-[2-(cyclopropanecarbonylamino)-1,3-benzothiazol-6-yl]-N-tetrahydropyran-4-yl-thieno[2,3-b]pyridine-3-carboxamide], the IC50 is 7.3 nM with HT29 cells (setting [2]) and 1.5 nM in experiment [1] (Mus musculus).

Regarding `O=C(NC1CCOCC1)c1nsc2ncc(-c3ccc4nc(NC(=O)C5CC5)sc4c3)cc12` [Compound C14, 5-[2-(cyclopropanecarbonylamino)-1,3-benzothiazol-6-yl]-N-tetrahydropyran-4-yl-isothiazolo[5,4-b]pyridine-3-carboxamide], the figures for the IC50 (in the experiment with HT29 cells (setting [2]); in experiment [1] (Mus musculus)) were 4.7 nM and 1.3 nM, respectively.

For `O=C(NC1CCCCC1)c1csc2ncc(-c3ccc4nc(NC(=O)C5CC5)sc4c3)cc12` [Compound C18, N-cyclohexyl-5-[2-(cyclopropanecarbonylamino)-1,3-benzothiazol-6-yl]thieno[2,3-b]pyridine-3-carboxamide], the IC50 was found to be 1 nM with HT29 cells (setting [2]) and 0.3 nM in experiment [1] (Mus musculus).

Turning to `CNC(=O)Nc1nc2ccc(-c3cnc4scc(C(=O)NC5CCCCC5)c4c3)cc2s1` [Compound C20, N-cyclohexyl-5-[2-(methylcarbamoylamino)-1,3-benzothiazol-6-yl]thieno[2,3-b]pyridine-3-carboxamide], the half-maximal inhibitory concentration (IC50) in the experiment with HT29 cells (setting [2]) was 1.6 nM; in experiment [1] (Mus musculus), 0.6 nM.

As to `O=C(NC1CCCCC1)c1nsc2ncc(-c3ccc4nc(NC(=O)C5CC5)sc4c3)cc12` [Compound C23, N-cyclohexyl-5-[2-(cyclopropanecarbonylamino)-1,3-benzothiazol-6-yl]isothiazolo[5,4-b]pyridine-3-carboxamide], the IC50 worked out at 5.3 nM in the experiment on HT29 cells (setting [2]) and 1.7 nM in experiment [1] (Mus musculus).

Take `O=C(NC1CCC(F)(F)CC1)c1nsc2ncc(-c3ccc4nc(NC(=O)C5CC5)sc4c3)cc12` [Compound C30, 5-[2-(cyclopropanecarbonylamino)-1,3-benzothiazol-6-yl]-N-(4,4-difluorocyclohexyl)isothiazolo[5,4-b]pyridine-3-carboxamide]: the figures for the IC50 (with HT29 cells (setting [2]); in experiment [1] (Mus musculus)) were 10 nM and 0.8 nM, respectively.

Consider `O=C(Nc1nc2ccc(-c3cnc4ccn(C(=O)NC5CCCCC5)c4c3)cc2s1)C1CC1` [Compound C33, N-cyclohexyl-6-[2-(cyclopropanecarbonylamino)-1,3-benzothiazol-6-yl]pyrrolo[3,2-b]pyridine-1-carboxamide], for which the IC50 worked out at 4.6 nM in the experiment with HT29 cells (setting [2]) and 0.3 nM in experiment [1] (Mus musculus).

Regarding `CN1CCC(NC(=O)c2nsc3ncc(-c4ccc5nc(NC(=O)C6CC6)sc5c4)cc23)CC1` [Compound C42, 5-(2-(cyclopropanecarboxamido)benzo[d]thiazol-6-yl)-N-(1-methylpiperidin-4-yl)isothiazolo[5,4-b]pyridine-3-carboxamide], the IC50 with HT29 cells (setting [2]) came to 3000 nM; in experiment [1] (Mus musculus) it was 321 nM.

Take `CN1C(=O)C(Cc2c[nH]c3ccccc23)NC1=S` (stereo not drawn) [Nec-1, reference compound]: the IC50 in the experiment with HT29 cells (1 h pre-treatment with compound) was 300 nM; in experiment [1], 1250 nM.
